Reference: publication PMC2765055 (Bioorganic & medicinal chemistry, 2009)
Entries after “also recorded” stand apart in the source; their conditions may differ. Read-outs that look alike come from different tables or passages of the source.

Experiments:
EBV [1] = assay: EBV DNA hybridization assay in Akata cells; format: cell-based, Epstein-Barr virus
[2] = Cytotoxicity, EBV/Akata column; format: cell-based; details: human, Akata cells
EBV [3] = details: read-out: EC50 EBV/Akata; DNA hybridization assay; cited from earlier work
HFF cells [4] = details: read-out: CC50 HCMV/HFF Towne; visual cytotoxicity of HFF; cited from earlier work
KB cells = details: read-out: CC50 HSV-1/BSC-1; replicating KB cells; cited from earlier work
HCMV AD169 strain = details: read-out: EC50 HCMV/HFF AD169, plaque reduction; cited from earlier work
HSV-2 [5] = details: read-out: EC50 HSV-2/HFF; CPE assay; cited from earlier work
MEF = details: read-out: CC50 MCMV/MEF; cited from earlier work
VZV [6] = details: cited from earlier work; for EC50: read-out: EC50 VZV/HFF, CPE assay
HSV-1 [7] = details: read-out: EC50 HSV-1/HFF; CPE assay; cited from earlier work
HSV-1 [8] = details: read-out: EC50 HSV-1/BSC-1; ELISA in BSC-1 cells; cited from earlier work
HFF cells [9] = details: neutral red uptake, cited from earlier work
hepatitis B virus (HBV) [10] = details: cited from earlier work
EBV [11] = details: read-out: EC50 EBV; Daudi cells, viral capsid antigen (VCA) assay; cited from earlier work
HSV-1 [12] = details: read-out: EC50 HSV-1/BSC-1; plaque reduction in BSC-1 cells; cited from earlier work
[13] = Cytotoxicity by neutral red uptake; format: cell-based; details: human, HFF cells
HFF cells [14] = assay: Cytotoxicity by neutral red uptake; format: cell-based; details: read-out: CC50 HSV-1/HFF; neutral red uptake, HSV-1/HFF column
[15] = test system: HCMV Towne strains with mutations in UL97; assay: HCMV Towne strains with UL97 mutations; format: cell-based, human cytomegalovirus; details: strains E8 and 2696r
[16] = test system: HCMV, MCMV, HSV-1, HSV-2, VZV, EBV, HBV, HCV; assay: Antiviral panel, all tested viruses; format: cell-based
[17] = Visual cytotoxicity of HFF's in cells unaffected by virus; format: cell-based; details: human, HFF cells (not affected by virus)
[18] = Cytotoxicity in replicating KB cells; format: cell-based; details: human
VZV [19] = assay: VZV CPE assay in HFF; format: cell-based, varicella zoster virus
hepatitis B virus (HBV) [20] = assay: HBV antiviral test; format: cell-based
hepatitis C virus (HCV) = assay: HCV antiviral test; format: cell-based
HSV-2 [21] = assay: HSV-2 CPE inhibition assay in HFF; format: cell-based, herpes simplex virus type 2; details: Human alphaherpesvirus 2, read-out: EC50 HSV-2/HFF
HSV-1 [22] = assay: HSV-1 CPE inhibition assay in HFF; format: cell-based, herpes simplex virus type 1; details: Human alphaherpesvirus 1, read-out: EC50 HSV-1/HFF
[23] = Cytotoxicity, MCMV/MEF column; format: cell-based; details: mouse, MEF cells
[24] = read-out: CC50 HCMV/HFF AD169, AD169 column
[25] = read-out: CC50 HSV-1/HFF, HSV-1/HFF column

Nc1nc2c(ncn2COCCO)c(=O)[nH]1 [Acyclovir, acyclovir]
EC50 (EBV [1]; human gammaherpesvirus 4, Akata, read-out: EC50 EBV/Akata): 8.4 µM | CC50 [2]: > 100 µM

Nc1nc2c(ncn2/C=C2/CC2(CO)CO)c(=O)[nH]1 [Compound 2b, cyclopropavir]
EC50 (EBV [3]): 0.22 µM | CC50 (HFF cells [4]): > 100 µM | CC50 (KB cells): > 100 µM | EC50 (HCMV AD169 strain): 0.49 µM | EC50 (HSV-2 [5]): > 380 µM | CC50 (MEF): > 380 µM | activity against VZV (VZV [6]; HFF): ineffective | EC50 (VZV [6]): > 380 µM | EC50 (HSV-1 [7]): > 380 µM | EC50 (HSV-1 [8]): > 100 µM | CC50 (HFF cells [9]; [24]): > 380 µM | CC50 (HFF cells [9]; [25]): > 380 µM

Nc1nc(O)c2ncn(/C=C3/CC34COP(=O)(O)OC4)c2n1 (stereo not shown) [Compound 10]
activity against HBV (hepatitis B virus (HBV) [10]): effective | CC50 (HFF cells [4]): > 100 µM | CC50 (KB cells): > 100 µM | EC50 (EBV [11]): 0.96 µM | EC50 (HCMV AD169 strain): 6 µM | CC50 (MEF): > 301 µM | EC50 (HSV-1 [12]): 20 µM | EC50 (VZV [6]): > 301 µM | EC50 (HSV-1 [7]): > 301 µM | CC50 (HFF cells [9]; [24]): > 301 µM | CC50 (HFF cells [9]; [25]): > 301 µM

Nc1nc2c(ncn2/C=C2/CC2(CO)CCP(=O)(O)O)c(=O)[nH]1 (stereo not drawn) [Compound 12, (Z)-9-{[2-(Hydroxymethy)l-2-(2-phosphonoethyl)cyclopropylidene]methyl}guanine]
CC50 [13]: > 300 µM | CC50 (HFF cells [14]): > 300 µM | activity against UL97 mutant strains compared with wild-type Towne HCMV [15]: as active

Nc1nc2c(ncn2/C=C2\CC2(CO)CCP(=O)(O)O)c(=O)[nH]1 (stereo not drawn) [Compound 13, (E)-9-{[2-(Hydroxymethy)l-2-(2-phosphonoethyl)cyclopropylidene]methyl}guanine]
antiviral activity against all tested viruses [16]: devoid of potency; also recorded: devoid of antiviral activity | CC50 [17]: > 100 µM | CC50 [18]: > 100 µM | CC50 [2]: > 100 µM

Nc1nc2c(ncn2/C=C2/CC23CCP(=O)(O)OC3)c(=O)[nH]1 (stereo not shown) [Compound 14]
activity against VZV (VZV [19]; HFF): ineffective | activity against EBV (EBV [1]; Akata cells): inactive; also recorded: ineffective | activity against UL97 mutant strains compared with wild-type Towne HCMV [15]: as active | activity against HBV (hepatitis B virus (HBV) [20]): inactive | activity against HCV (hepatitis C virus (HCV)): inactive

Nc1nc2c(ncn2/C=C2\CC23CCP(=O)(O)OC3)c(=O)[nH]1 (stereo not shown) [Compound 15]
EC50 (VZV [19]; Human alphaherpesvirus 3, read-out: EC50 VZV/HFF): > 300 µM | CC50 [13]: > 300 µM | CC50 (HFF cells [14]): > 300 µM | antiviral activity against all tested viruses [16]: devoid of potency; also recorded: devoid of antiviral activity | CC50 [17]: > 100 µM | EC50 (HSV-2 [21]): > 300 µM | EC50 (HSV-1 [22]): > 300 µM | CC50 [18]: > 100 µM | CC50 [2]: > 100 µM

Nc1nc(O)c2ncn(COC(CO)CO)c2n1 [Ganciclovir, ganciclovir]
CC50 [13]: > 100 µM | CC50 [17]: > 100 µM | CC50 [23]: > 100 µM
